Here are results for 1 compound from paper PMC8787483 (mBio, 2022).

This test has as its target Gnp2 (CR_09920W) (Candida albicans, UniProt A0A1D8PU37). As to conditions: 10 mM proline as sole carbon source, YNB, ammonium sulfate, pH 4.5, 37 °C, 6 h.

Sequence of Gnp2 (CR_09920W) (A0A1D8PU37 entry or part of it): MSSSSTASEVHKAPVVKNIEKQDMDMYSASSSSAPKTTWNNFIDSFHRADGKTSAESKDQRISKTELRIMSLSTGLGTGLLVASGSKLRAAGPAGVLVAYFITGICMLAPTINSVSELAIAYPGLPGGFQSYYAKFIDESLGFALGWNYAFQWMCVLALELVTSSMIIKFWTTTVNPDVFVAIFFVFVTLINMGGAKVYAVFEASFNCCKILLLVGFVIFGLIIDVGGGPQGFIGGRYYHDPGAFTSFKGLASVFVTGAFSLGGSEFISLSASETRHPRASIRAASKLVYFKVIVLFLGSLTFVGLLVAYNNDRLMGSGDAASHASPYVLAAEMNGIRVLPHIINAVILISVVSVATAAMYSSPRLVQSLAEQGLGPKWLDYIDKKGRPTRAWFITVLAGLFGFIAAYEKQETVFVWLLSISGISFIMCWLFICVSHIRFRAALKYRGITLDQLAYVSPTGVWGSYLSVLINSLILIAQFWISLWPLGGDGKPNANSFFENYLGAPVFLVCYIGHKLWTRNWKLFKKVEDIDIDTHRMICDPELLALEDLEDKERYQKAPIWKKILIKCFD

With `O=C(O)[C@@H]1CCCN1` [proline], the “LC-MS of extracellular proline, wild type vs gnp2 deletion vs complemented cells” value was “extracellular proline concentration was significantly reduced in the wild type and the GNP2 complemented strain”.
